Values quoted from earlier work in patent US8097606B2, “Antiglucocorticoids for the treatment of catatonia” (Corcept Therapeutics, Inc., priority 2003, dated 2012).

share of the daily dose excreted in the urine: less than 0.5%
Structure (SMILES): CC#C[C@]1(O)CC[C@H]2[C@@H]3CCC4=CC(=O)CCC4=C3[C@@H](c3ccc(N(C)C)cc3)C[C@@]21C [mifepristone, 17-β-hydroxy-11-β-(4-dimethyl-aminophenyl)-17-α-(1-propynyl)-estra-4,9-dien-3-one]
